The values that follow come from publication PMC10536132, “Arginine Gemini-Based Surfactants for Antimicrobial and Antibiofilm Applications: Molecular Interactions, Skin-Related Anti-Enzymatic Activity and Cytotoxicity” (Molecules, 2023).

Data set [1] is described as follows: Apparent pKa by direct titration with NaOH. The data set is classed as physicochemical. The settings on record: aqueous solution, concentration above the minimum aggregation concentration; pH at semi-equivalence point. How it is done:
In order to determine the ionization state of these gemini surfactants at the pH used to investigate their biological properties, the apparent acid pKa was determined for each of them. The pKap value has been determined by means of a direct titration with NaOH of an aqueous solution of each compound. The surfactant concentrations used were in all cases higher than the minimum aggregation concentration, thus avoiding possible deviations in the pK value due to the monomer–aggregate balance. The pKap values can be estimated from the pH at the semi-equivalence point that is reached when the molar ratio of protonated and non-protonated species is 1:1. In these conditions, we have that the pH = pKa.
The pKa value of each compound has been determined by means of a direct titration with NaOH of an aqueous solution of each compound. The pH was measured using the pH electrode Thermo Electron Corporation ORION 8103SC and the temperature was controlled by a thermostatic bath, Heto CBN 8-30. The pKa values can be estimated from the pH at the semi-equivalence point, which contains a 1:1 molar ratio of protonated and non-protonated species; at this point, pH = pKap.

The target of data set [2] is porcine pancreatic elastase (Sus scrofa, UniProt P00772). Briefly: Elastase inhibitory assay. Type of data set: biochemical. The settings on record: 40 µL of 1000 µg/mL stock; EGCG 250 μM. The procedure:
The elastase inhibition was tested according to the method described by […] et al.. First, a stock solution of each surfactant at 1000 μg/mL was prepared in sterile ultrapure water. A stock solution of porcine pancreatic elastase at 3.33 mg/mL in sterile ultrapure water was also prepared. The substrate […] (Ala) 3-p-nitroanilide was dissolved in 0.2 mM Tris-HCl buffer solution (pH 8.0). The samples (40 μL) were then diluted and incubated together with the enzyme for 15 min prior to the substrate addition. Negative control was sterile ultrapure water, while EGCG (250 μM or 0.114 mg/mL) was used as the positive control. The absorbance at λ = 410 nm was measured immediately after the substrate addition and continuously during the next 2 h using an Elx800 Microplate Reader (Biotek®). […] The anti-elastase activity (in %), determined in triplicate, was calculated according to the following equation:(2) Elastase inhibitory activity %=A1-A2/A1×100 where A1 and A2 represent the absorbance in the absence and presence of the testing samples, respectively.

A further data set deals with bovine hyaluronidase. Briefly: Hyaluronidase inhibitory activity. The settings on record: negative inhibition values. The data set is classed as biochemical. How it is done:
The hyaluronidase inhibitory activity was performed according to the method used by Altinyay et al. with some modifications. Briefly, a work solution containing bovine hyaluronidase (7900 units/mL) in 0.1 M acetate buffer (pH 3.6) was prepared. Fifty microliters of the work solution were mixed 1:1 with the surfactants’ solution in 5% DMSO. For the negative control, 50 μL of 5% DMSO was used, while EGCG was used as positive control. After 20 min of incubation at 37 °C, 50 μL of calcium chloride (12.5 mM) was added to the mixture and again incubated for 20 min at 37 °C. At that point, 250 μL sodium hyaluronate (1.2 mg/mL) was added and incubated for 40 min at 37 °C. After incubation, the mixture was treated with 50 μL of 0.4 M NaOH and 100 μL of 0.2 M sodium borate and then incubated for 3 min in a boiling water bath. After cooling to room temperature, 1.4 mL of p-dimethylaminobenzaldehyde solution was added to the reaction mixture, being further incubated at 37 °C for 20 min. The resulting colored solution was measured at λ = 585 nm (PerkinElmer-Lambda 35, Brazil). The hyaluronidase inhibitory activity of each sample was calculated according to the following formula:(3) Hyaluronidase inhibitory activity %=A1−A2/A1×100 where A1 and A2 represent the absorbance in the absence and presence of the testing sample, respectively.

A short description of data set [3]: Cell viability, NRU assay. The settings on record: human, HaCaT cells (immortal human keratinocytes); NRU, HaCaT, surfactant in solution at 35.6 µg/mL, 24 h; read-out: cellular viability. The data set is classed as cell-based, human. The procedure:
(§1) The immortal human keratinocyte (HaCaT) and the squamous cell carcinoma (A431) were obtained from Celltec, University of Barcelona. The cells were grown in DMEM medium (4.5 g/L glucose) supplemented with 10% (v/v) FBS, 2 mM L-glutamine, 100 U/mL of penicillin and 100 μg/mL of streptomycin at 37 °C under 5% CO2. Cells were routinely cultured in 75 cm^2 culture flasks and were trypsinized using trypsin-EDTA when reached approximately 80% of confluence.
(§2) HaCaT cells (1 × 10^5 cells/mL) and A431 cells (5 × 10^4 cells/mL) were grown at the defined densities into the central 60 wells of a 96-well microplate. Cells were incubated for 24 h under 5% CO2 at 37 °C. The medium was then removed and the cells were incubated with the surfactants (100 μL), previously diluted 1:1 (v/v), reaching a concentration of […] in DMEM medium supplemented with 5% FBS using two different colorimetric methods for quantification, as follows.
(§3) The accumulation of the neutral red dye in the lysosomes of viable, undamaged cells constitutes the basis of the neutral red uptake (NRU) assay. After the cells were incubated for 24 h with the corresponding systems at 35.6 µg/mL, the medium was removed and the surfactants´ solutions were incubated for 3 h with the NRU dye solution (50 μg/mL) dissolved in the medium without FBS and phenol red (Lonza). Cells were then washed with sterile PBS, followed by the addition of 100 μL of a solution containing 50% ethanol absolute and 1% acetic acid in distilled water to extract the non-adhered dye. The microplates were then stirred for 5 min at 25 °C to promote the dissolution. Finally, the absorbance of the resulting solutions was measured at λ = 550 nm using a Bio-Rad 550 microplate reader (Hercules, CA, USA).

Data set [4] in a line: Cell viability, NRU assay. The settings on record: human, A431 cells (squamous cell carcinoma), A431, surfactant in solution at 35.6 µg/mL, read-out: cellular viability. The data set is classed as cell-based. The procedure: as §1, §2, §3
Details of data set [5]: method as in doi:10.1021/la981295l. The settings on record: cited from earlier work.
Details of data set [6]: method as in doi:10.1021/la981295l. The settings on record: cited from earlier work. This is another data set of the same source.
On the set-up of data set [7]: method as in doi:10.1021/la981295l. The conditions noted are these: cited from earlier work. This is another data set of the same source.

The structures appear in SMILES notation. Where two headings read alike, the source gives them in different places. Marks after values point to notes of the source that are not given here.

Chain of porcine pancreatic elastase (P00772 27-266): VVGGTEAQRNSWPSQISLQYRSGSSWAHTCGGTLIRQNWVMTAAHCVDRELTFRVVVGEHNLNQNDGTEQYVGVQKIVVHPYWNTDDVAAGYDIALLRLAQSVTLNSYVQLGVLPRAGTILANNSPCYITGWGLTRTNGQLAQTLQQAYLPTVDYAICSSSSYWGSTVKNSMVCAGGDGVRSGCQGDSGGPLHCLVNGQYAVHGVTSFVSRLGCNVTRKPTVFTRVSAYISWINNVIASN

For the compound `CCCCCCCCCCCC(=O)NC(CCCNC(=N)N)C(=O)NCCCCCCCCCNC(=O)C(CCCNC(=N)N)NC(=O)CCCCCCCCCCC` (stereo not drawn) [C9(LA)2, Bis (N^α-lauroyl arginine 1,3-nonane) diamide], the pKap in data set [1] worked out at 9.4. Moreover, in data set [2], the “anti-elastase activity (inhibition)” value was determined as 15.9%. Further, the “increase of hyaluronidase enzymatic activity” value in the data set with bovine hyaluronidase is recorded as 29.9%. Also, the viability at 24 h, 35.6 µg/mL in data set [3] and in data set [4] was 60.7% in each case. Besides, the “CMC (mM) Conductivity” value in data set [5] is 0.3 * mM. In addition, the “CMC (mM) Fluorescence” value in data set [6] is on record as 0.3 * mM. For the same compound, in data set [7], the “CMC (mM) Surface Tension” value is listed as 0.003 * mM. Besides, in data set [7] (surface tension at the cmc), the γcmc is 34 * mN/m.

Usually viability stands for the share of living cells, or the viability signal relative to a control.
